# Test results published in article PMC4716540 (British Journal of Cancer, 2015).
# “Also recorded” adds a separate entry of the source.
# Test system: patients with confirmed relapsed/refractory MM, CLL, or NHL
# Experiment: Phase I safety and tolerability: adverse events, DLT, MTD, RP2D
# Assay type: in vivo, human
smiles,measurement,setting,value
CCc1c(O)cc(O)c(C(=O)c2ccc(OCCN3CCOCC3)c(OC)c2)c1CC(=O)N(CCOC)CCOC [KW-2478],AE (treatment-emergent),99 mg m^–2 (n=4),4 (100.0) No. of patients (%)
same,Abdominal pain (any AE),99 mg m^–2 (n=4),1 (25.0) No. of patients (%)
same,Acne (any AE),99 mg m^–2 (n=4),0 No. of patients (%)
same,Anaemia (any AE),99 mg m^–2 (n=4),0 No. of patients (%)
same,Anorexia (any AE),99 mg m^–2 (n=4),0 No. of patients (%)
same,Back pain (any AE),99 mg m^–2 (n=4),2 (50.0) No. of patients (%)
same,Diarrhoea (any AE),99 mg m^–2 (n=4),2 (50.0) No. of patients (%)
same,Dizziness (any AE),99 mg m^–2 (n=4),0 No. of patients (%)
same,Fatigue (any AE),99 mg m^–2 (n=4),2 (50.0) No. of patients (%)
same,Haemoglobin decreased (any AE),99 mg m^–2 (n=4),0 No. of patients (%)
same,Hair disorder (any AE),99 mg m^–2 (n=4),0 No. of patients (%)
same,Headache (any AE),99 mg m^–2 (n=4),2 (50.0) No. of patients (%)
same,Herpes simplex infection (any AE),99 mg m^–2 (n=4),0 No. of patients (%)
same,Hypertension (any AE),99 mg m^–2 (n=4),1 (25.0) No. of patients (%)
same,LRTI (any AE),99 mg m^–2 (n=4),0 No. of patients (%)
same,Musculoskeletal chest pain (any AE),99 mg m^–2 (n=4),1 (25.0) No. of patients (%)
same,Nausea (any AE),99 mg m^–2 (n=4),1 (25.0) No. of patients (%)
same,Oral herpes (any AE),99 mg m^–2 (n=4),1 (25.0) No. of patients (%)
same,Rhinitis (any AE),99 mg m^–2 (n=4),0 No. of patients (%)
same,Serious AE,99 mg m^–2 (n=4),2 (50) No. of patients (%)
same,Treatment-related AE,99 mg m^–2 (n=4),3 (75.0) No. of patients (%)
same,Vomiting (any AE),99 mg m^–2 (n=4),1 (25.0) No. of patients (%)
same,AE (treatment-emergent),132 mg m^–2 (n=6),6 (100.0) No. of patients (%)
same,Abdominal pain (any AE),132 mg m^–2 (n=6),2 (33.3) No. of patients (%)
same,Acne (any AE),132 mg m^–2 (n=6),0 No. of patients (%)
same,Anaemia (any AE),132 mg m^–2 (n=6),0 No. of patients (%)
same,Anorexia (any AE),132 mg m^–2 (n=6),1 (16.7) No. of patients (%)
same,Back pain (any AE),132 mg m^–2 (n=6),1 (16.7) No. of patients (%)
same,Diarrhoea (any AE),132 mg m^–2 (n=6),3 (50.0) No. of patients (%)
same,Dizziness (any AE),132 mg m^–2 (n=6),1 (16.7) No. of patients (%)
same,Fatigue (any AE),132 mg m^–2 (n=6),1 (16.7) No. of patients (%)
same,Haemoglobin decreased (any AE),132 mg m^–2 (n=6),2 (33.3) No. of patients (%)
same,Hair disorder (any AE),132 mg m^–2 (n=6),0 No. of patients (%)
same,Headache (any AE),132 mg m^–2 (n=6),4 (66.7) No. of patients (%)
same,Herpes simplex infection (any AE),132 mg m^–2 (n=6),0 No. of patients (%)
same,Hypertension (any AE),132 mg m^–2 (n=6),2 (33.3) No. of patients (%)
same,LRTI (any AE),132 mg m^–2 (n=6),1 (16.7) No. of patients (%)
same,Musculoskeletal chest pain (any AE),132 mg m^–2 (n=6),2 (33.3) No. of patients (%)
same,Nausea (any AE),132 mg m^–2 (n=6),2 (33.3) No. of patients (%)
same,Oral herpes (any AE),132 mg m^–2 (n=6),0 No. of patients (%)
same,Rhinitis (any AE),132 mg m^–2 (n=6),4 (66.7) No. of patients (%)
same,Serious AE,132 mg m^–2 (n=6),3 (50.0) No. of patients (%)
same,Treatment-related AE,132 mg m^–2 (n=6),5 (83.3) No. of patients (%)
same,Vomiting (any AE),132 mg m^–2 (n=6),3 (50.0) No. of patients (%)
same,Number of treatment-related AEs per patient (average),176 mg m^–2,9.2
same,AE (treatment-emergent),176 mg m^–2 (n=7),7 (100.0) No. of patients (%)
same,Abdominal pain (any AE),176 mg m^–2 (n=7),0 No. of patients (%)
same,Acne (any AE),176 mg m^–2 (n=7),0 No. of patients (%)
same,Anaemia (any AE),176 mg m^–2 (n=7),3 (42.9) No. of patients (%)
same,Anorexia (any AE),176 mg m^–2 (n=7),2 (28.6) No. of patients (%)
same,Back pain (any AE),176 mg m^–2 (n=7),0 No. of patients (%)
same,Diarrhoea (any AE),176 mg m^–2 (n=7),4 (57.1) No. of patients (%)
same,Dizziness (any AE),176 mg m^–2 (n=7),0 No. of patients (%)
same,Fatigue (any AE),176 mg m^–2 (n=7),4 (57.1) No. of patients (%)
same,Haemoglobin decreased (any AE),176 mg m^–2 (n=7),0 No. of patients (%)
same,Hair disorder (any AE),176 mg m^–2 (n=7),0 No. of patients (%)
same,Headache (any AE),176 mg m^–2 (n=7),2 (28.6) No. of patients (%)
same,Herpes simplex infection (any AE),176 mg m^–2 (n=7),1 (14.3) No. of patients (%)
same,Hypertension (any AE),176 mg m^–2 (n=7),0 No. of patients (%)
same,LRTI (any AE),176 mg m^–2 (n=7),2 (28.6) No. of patients (%)
same,Musculoskeletal chest pain (any AE),176 mg m^–2 (n=7),1 (14.3) No. of patients (%)
same,Nausea (any AE),176 mg m^–2 (n=7),0 No. of patients (%)
same,Oral herpes (any AE),176 mg m^–2 (n=7),1 (14.3) No. of patients (%)
same,Rhinitis (any AE),176 mg m^–2 (n=7),3 (42.9) No. of patients (%)
same,Serious AE,176 mg m^–2 (n=7),1 (14.3) No. of patients (%)
same,Treatment-related AE,176 mg m^–2 (n=7),5 (71.4) No. of patients (%)
same,Vomiting (any AE),176 mg m^–2 (n=7),1 (14.3) No. of patients (%)
same,Dose-limiting toxicities (DLTs),"14–176 mg m^–2 iv once daily days 1–5 of 14-day cycle, first cycle",no dose-limiting toxicities; also recorded: no DLTs
same,"Changes in haematological or biochemistry values, vital signs, body weight, ECG results",all doses,no clinically meaningful changes
same,Neurotoxicity and thrombocytopenia,all doses,no apparent neurotoxicity nor significant thrombocytopenia
same,Tolerability,all doses,safe and well tolerated
same,Treatment-related AEs ⩾grade 3,all doses,rare
same,Total number of treatment-related AEs reported,"all doses, all cycles",127
same,Total number of AEs reported,"all doses, all cycles, 27 patients",282
same,AE: diarrhoea,"all doses, all cycles, N=27",48.1%
same,AE: fatigue,"all doses, all cycles, N=27",33.3%
same,AE: headache,"all doses, all cycles, N=27",40.7%
same,AE: rhinitis,"all doses, all cycles, N=27",40.7%
same,Patients reporting AEs,"all doses, all cycles, N=27",100%
same,Patients reporting treatment-related AEs,"all doses, all cycles, N=27",77.8%
same,Mean blood pressure,all patients during the study,no apparent dose-related increase
same,Maximum-tolerated dose (MTD),doses up to 176 mg m^–2,not reached
same,Grade 3/4 AEs considered possibly treatment-related,"lethargy (two episodes) and syncope, QT prolongation, neutrophil decrease",five events in three patients
same,Recommended phase II dose (RP2D),"once daily on days 1–5 every 2 weeks, highest dose tested",176 mg m^–2
same,Treatment-related AE: diarrhoea,"per patient, all doses, N=27",33.3%
same,Treatment-related AE: dizziness,"per patient, all doses, N=27",7.4%
same,Treatment-related AE: fatigue,"per patient, all doses, N=27",29.6%
same,Treatment-related AE: headache,"per patient, all doses, N=27",25.9%
same,Treatment-related AE: nausea,"per patient, all doses, N=27",14.8%
same,Treatment-related AE: vomiting,"per patient, all doses, N=27",7.4%
same,"Deaths during the study, relation to study medication","two patients, bronchopneumonia and lower respiratory tract infection",unrelated to study medication
